# Patent US11214803B2, “Modulators of YAP1 expression” (Ionis Pharmaceuticals, Inc., priority 2019, dated 2022)
# Legend:
# Yap1 mRNA [1] = test: Dose-dependent inhibition of human Yap1 in SNU-449 cells (Example 9, RTS36584); type: cell-based; conditions: free uptake; for % UTC (Yap1 mRNA): approximately 48 hours
# Outline: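 SNU-449 cells (10,000/well) took up modified oligonucleotides by free uptake at a range of doses for about 48 h. Yap1 mRNA was quantified with primer-probe set RTS36584, normalised to RIBOGREEN total RNA and expressed as % untreated control; IC50 from linear regression on log/linear plot.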
# [2] = Tolerability in Sprague-Dawley rats, plasma chemistry markers (Example 22); type: in vivo; conditions: male Sprague-Dawley rats, 50 mg/kg s.c. weekly for 6 weeks (7 doses), 48 hours after last dose
# Description: Sprague-Dawley rats are a multipurpose model used for safety and efficacy evaluations. The rats were treated with Ionis modified oligonucleotides from the studies described in the Examples above and evaluated for changes in the levels of various plasma chemistry markers.
# [3] = Tolerability in Sprague-Dawley rats, body and organ weights (Example 22); type: in vivo; conditions: male Sprague-Dawley rats, 50 mg/kg s.c. weekly for 6 weeks (7 doses)
# Description: Terminal body weight was measured prior to necropsy. Ionis oligonucleotides that caused any changes in organ weights outside the expected range for modified oligonucleotides were excluded from further studies.
# SCC25 cells = test: Cell proliferation assay in SCC25 cells, CellTiter-Glo (Example 25); type: cell-based, human; conditions: free uptake, 144 hours
# Yap1 mRNA [4] = test: Inhibition of human Yap1 mRNA in epidermoid carcinoma A-431 xenograft tumors (Example 27); type: in vivo; conditions: A-431 xenografts in NCr-Foxn1nu mice, 6-8 hours post final dose, relative to PBS
# Outline: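 Female NCr-Foxn1nu mice carried subcutaneous A-431 xenografts (5 million cells in 30% matrigel), grouped at about 40 mm^3 (n=4). Oligonucleotides were given at 25 or 50 mg/kg daily for four days (5 doses), with tumors harvested 6-8 h after the last dose. Yap1 mRNA was measured by RT-qPCR, normalized to actin-beta and expressed as % of PBS-treated control.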
# Yap1 mRNA [5] = test: Inhibition of human Yap1 mRNA in squamous cell carcinoma CAL27 xenograft tumors (Example 28); type: in vivo; conditions: CAL27 xenografts in NCr-Foxn1nu mice, relative to PBS treated
# Outline: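 Female nude mice bearing subcutaneous CAL27 tumours (~100 mm^3) received modified oligonucleotides at 15 or 30 mg/kg daily for five days, n=4. Tumour Yap1 mRNA measured by RT-qPCR, normalised to actin-beta, expressed as % of PBS control.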
# [6] = Cynomolgus monkey tolerability, hematology (Example 34); type: in vivo, cynomolgus monkeys
# Outline: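 On day 44, blood from oligonucleotide-treated cynomolgus monkeys was collected into K2-EDTA. An automated analyzer measured red cell indices, reticulocytes, platelets and MPV, and total and differential white cell counts.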
# [7] = rat, in vivo, sc, 50 mg/kg
# Description: Male Sprague-Dawley rats were maintained on a 12-hour light/dark cycle and fed ad libitum with Purina normal rat chow. Groups of 4 Sprague-Dawley rats each were weekly injected subcutaneously with 50 mg/kg of Ionis oligonucleotide for 6 weeks (total 7 doses). Forty-eight hours after the last dose, the rats were euthanized; and organs, urine and plasma were harvested for further analysis.
# To evaluate the effect of Ionis oligonucleotides on kidney function, urinary levels of total protein and creatinine were measured using an automated clinical chemistry analyzer (Hitachi Olympus AU400c, Melville, N.Y.).
# [8] = cynomolgus monkey, in vivo, sc, 35 mg/kg
# Description: Prior to the study, the monkeys were kept in quarantine during which the animals were observed daily for general health. The monkeys were 2-4 years old and weighed 2-4 kg. Eleven groups of 4 randomly assigned male cynomolgus monkeys each were injected subcutaneously with Ionis oligonucleotide or saline in a clock-wise rotation between four different sites on the back. Following loading doses on days 1, 3, 5 and 7, the monkeys were dosed once per week (on days 14, 21, 28, 35, and 42) with 35 mg/kg of Ionis oligonucleotide.
# To evaluate the effect of Ionis oligonucleotides on hepatic and kidney function, blood samples were collected from all the study groups on day 44. The monkeys were fasted overnight prior to blood collection. Blood was collected in tubes without anticoagulant for serum separation. The tubes were kept at room temperature for a minimum of 90 minutes and then centrifuged at 3000 rpm for 10 minutes to obtain serum. Levels of various liver function markers were measured using a Toshiba 200FR NEO chemistry analyzer (Toshiba Co., Japan).
# [9] = cynomolgus monkey, in vivo, sc, 35 mg/kg
substance,measurement,setting,value
"1197270 (TTAAAGTGTATGTCAG; cEt gapmer with 2'-OMe nucleoside, phosphorothioate, further chemistry not given here) [compound 1197270]",% UTC (Yap1 mRNA),Yap1 mRNA [1]; 31.3 nM,43 % UTC
same,% UTC (Yap1 mRNA),Yap1 mRNA [1]; 125.0 nM,23 % UTC
same,% UTC (Yap1 mRNA),Yap1 mRNA [1]; 500.0 nM,8 % UTC
same,% UTC (Yap1 mRNA),Yap1 mRNA [1]; 2000.00 nM,2 % UTC
same,IC50,Yap1 mRNA [1]; linear regression on a log/linear plot,< 30 nM
same,ALT,[2],84 U/L
same,AST,[2],120 U/L
same,BUN,[2],24 mg/dL
same,TBIL,[2],0.19 mg/dL
same,Kidney weight,[3]; end of study,3.6 g
same,Liver weight,[3]; end of study,15 g
same,Spleen weight,[3]; end of study,2.0 g
same,body weight,"[3]; terminal, prior to necropsy",374 g
same,cell proliferation (luminescence) % UTC,SCC25 cells; 0.04 μM,75 % UTC
same,cell proliferation (luminescence) % UTC,SCC25 cells; 0.2 μM,40 % UTC
same,cell proliferation (luminescence) % UTC,SCC25 cells; 1 μM,22 % UTC
same,cell proliferation (luminescence) % UTC,SCC25 cells; 5 μM,14 % UTC
same,"Yap1 mRNA in tumors, % control",Yap1 mRNA [4]; 25 mpk daily (5 doses),57 % control
same,"Yap1 mRNA in tumors, % control",Yap1 mRNA [4]; 50 mpk daily (5 doses),38 % control
same,"Yap1 mRNA in tumors, % UTC",Yap1 mRNA [5]; 15 mg/kg daily for five days,55 % UTC
same,"Yap1 mRNA in tumors, % UTC",Yap1 mRNA [5]; 30 mg/kg daily for five days,38 % UTC
same,BAS,[6]; [9],0.4%
same,EOS,[6]; [9],2.7%
same,HCT,[6]; [9],44%
same,HGB,[6]; [9],12 g/dL
same,LUC,[6]; [9],1.2%
same,LYM,[6]; [9],54%
same,MCH,[6]; [9],22 pg
same,MCHC,[6]; [9],28 g/dL
same,MCV,[6]; [9],79 fL
same,MON,[6]; [9],3.5%
same,NEU,[6]; [9],38%
same,PLT,[6]; [9],452 10^3/μL
same,RBC,[6]; [9],5.6e+06 µL⁻¹
same,RCDW,[6]; [9],12%
same,Retic,[6]; [9],1.1%
same,WBC,[6]; [9],10600 µL⁻¹
same,MPV,"[6]; cynomolgus monkeys, 35 mg/kg subcutaneously, day 44",7.1 fL
same,URINE P/C ratio (total protein to creatinine ratio),[7],14
same,A/G ratio,[8],1.2
